Measured values taken from patent US9820937B2, “Pharmaceutical composition formulated for pre-gastric absorption of monoamine oxidase B inhibitors” (R.P. Scherer Technologies, LLC, priority 1997, dated 2017).

Target: T1, MAO-B (Homo sapiens, UniProt P27338)
T1 construct: from tissue; host or cells: whole body of living study subjects (in vivo); no isolated enzyme
T1 sequence (P27338 1-520): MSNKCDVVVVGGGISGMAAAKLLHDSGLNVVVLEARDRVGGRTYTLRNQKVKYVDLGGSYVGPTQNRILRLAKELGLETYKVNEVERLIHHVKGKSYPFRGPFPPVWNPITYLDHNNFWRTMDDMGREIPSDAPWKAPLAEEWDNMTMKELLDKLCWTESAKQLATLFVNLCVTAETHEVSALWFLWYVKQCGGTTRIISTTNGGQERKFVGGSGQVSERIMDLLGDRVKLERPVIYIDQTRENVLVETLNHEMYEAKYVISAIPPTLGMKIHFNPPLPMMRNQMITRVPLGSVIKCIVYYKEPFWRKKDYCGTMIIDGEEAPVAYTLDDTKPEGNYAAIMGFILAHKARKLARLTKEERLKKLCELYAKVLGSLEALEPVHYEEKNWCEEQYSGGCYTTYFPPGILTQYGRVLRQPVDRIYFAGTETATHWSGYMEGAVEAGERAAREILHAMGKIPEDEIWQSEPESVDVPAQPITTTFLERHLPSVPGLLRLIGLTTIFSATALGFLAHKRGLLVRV
Type: in vivo
Details: four pharmacokinetic studies

Compound: C#CCN[C@H](C)Cc1ccccc1 [N-desmethylselegiline]
- correlation of Log 10 plasma AUC with 24 hour cumulative urinary excretion of phenethylamine: no significant correlation
